# According to publication PMC3834215, “RedOx Status, Proteasome and APEH: Insights into Anticancer Mechanisms of t10,c12-Conjugated Linoleic Acid Isomer on A375 Melanoma Cells” (PLoS ONE, 2013):
# Legend:
# [1] = target: T1, 20S human proteasome (Homo sapiens, UniProt P28074); test: Cell-free inhibition of chymotrypsin-like (CT-like) activity of 20S proteasome; assay type: biochemical; conditions: for IC50: 30 min pre-incubation, 37 °C, pH 7.5, N-Suc-LLVT-AMC 0.080 mM, read-out: IC50 on 20S isoform (CT-like activity)
# T1 construct: purchased Boston Biochem
# Protocol: (§1) The fluorescent substrate N-succinyl-Leu-Leu-Val-Tyr-7-amido-4-methylcoumarin (N-Suc-LLVT-AMC) was used for measurement of the CT-like activity of the proteasome, both in cell free assays and in cancer cell extracts, at a final concentration of 0.080 mM at 37 °C in Tris buffer pH 7.5, following the procedure described in Palmieri et al..
# (§2) Protease inhibition activities of CLA isomers and fatty acids were carried out using a fixed amount of commercially available APEH or 20S, 20Si, 26S proteasomes (3-5 nM or 0.12 mg/mL, respectively), and increasing concentrations of fatty acid. Mixtures were pre-incubated for 30min at 37 °C in 50 mM Tris-HCl buffer pH 7.5, before addition of the specific substrate, and the enzymatic activities were followed as described above.
# [2] = test system: A375 melanoma cells; test: MTT cell viability, A375; assay type: cell-based, human; conditions: for reduction of cell viability: A375, 24h exposure, 50 to 200 μM
# Protocol: (§3) The colorimetric 3-(4,5-dimethylthiazol-2)-2,5-diphenyltetrazolium bromide (MTT) (Sigma Aldrich, Milan) assay was used to quantify cell viability. Briefly, cells were incubated in 96 well microplates in the appropriate complete medium with standardized densities for 24h as pre-incubation process. The medium was removed and replaced by medium containing different doses of the different CLA-isomers for 24h. Following treatment, the medium was removed and the cells were incubated with DMEM w/o red phenol with 0.5 mg/ml MTT for additional 2 to 4h at 37 °C. After removal of the medium and MTT, cells in each plate were incubated with 0.1 M HCl/isopropanol to dissolve the MTT-formazan crystals. Absorbance at 590 nm was recorded with a plate reader (Bio Rad mod 680). The relative number of viable cells was expressed as a percentage of the control.
# [3] = target: T2, 20Si human proteasome (Homo sapiens, UniProt P28062); test: Cell-free inhibition of CT-like activity of 20Si proteasome; assay type: biochemical; conditions: for IC50: 30 min pre-incubation, 37 °C, pH 7.5, N-Suc-LLVT-AMC 0.080 mM, read-out: IC50 on 20Si isoform (CT-like activity)
# T2 construct: purchased Boston Biochem
# Protocol: The fluorescent substrate N-succinyl-Leu-Leu-Val-Tyr-7-amido-4-methylcoumarin (N-Suc-LLVT-AMC) was used for measurement of the CT-like activity of the proteasome, both in cell free assays and in cancer cell extracts, at a final concentration of 0.080 mM at 37 °C in Tris buffer pH 7.5, following the procedure described in Palmieri et al. [25].
# [4] = test system: A375M metastatic melanoma cells; test: MTT cell viability, A375M; assay type: cell-based, human; conditions: 24h exposure, 50 to 200 μM
# Protocol: as §3
# [5] = test system: MDA-MB mammary adenocarcinoma cells; test: MTT cell viability, MDA-MB; assay type: cell-based, human; conditions: 24h exposure, 50 to 200 μM
# Protocol: as §3
# [6] = test system: all cancer cells (U87, MCF7, MDA-MB, HeLa, Caco2, HepG2, A375M, A375); test: MTT cell viability, eight cancer cell lines; assay type: cell-based, human; conditions: up to 200 μM, 24h, data not shown
# Protocol: as §3
# [7] = target: T3, Porcine liver APEH (Sus scrofa, UniProt P19205); test: Cell-free APEH inhibition assay (acetyl-Ala-pNA); assay type: biochemical
# T3 construct: purchased Takara; host or cells: porcine liver
# T3 sequence (P19205 1-732): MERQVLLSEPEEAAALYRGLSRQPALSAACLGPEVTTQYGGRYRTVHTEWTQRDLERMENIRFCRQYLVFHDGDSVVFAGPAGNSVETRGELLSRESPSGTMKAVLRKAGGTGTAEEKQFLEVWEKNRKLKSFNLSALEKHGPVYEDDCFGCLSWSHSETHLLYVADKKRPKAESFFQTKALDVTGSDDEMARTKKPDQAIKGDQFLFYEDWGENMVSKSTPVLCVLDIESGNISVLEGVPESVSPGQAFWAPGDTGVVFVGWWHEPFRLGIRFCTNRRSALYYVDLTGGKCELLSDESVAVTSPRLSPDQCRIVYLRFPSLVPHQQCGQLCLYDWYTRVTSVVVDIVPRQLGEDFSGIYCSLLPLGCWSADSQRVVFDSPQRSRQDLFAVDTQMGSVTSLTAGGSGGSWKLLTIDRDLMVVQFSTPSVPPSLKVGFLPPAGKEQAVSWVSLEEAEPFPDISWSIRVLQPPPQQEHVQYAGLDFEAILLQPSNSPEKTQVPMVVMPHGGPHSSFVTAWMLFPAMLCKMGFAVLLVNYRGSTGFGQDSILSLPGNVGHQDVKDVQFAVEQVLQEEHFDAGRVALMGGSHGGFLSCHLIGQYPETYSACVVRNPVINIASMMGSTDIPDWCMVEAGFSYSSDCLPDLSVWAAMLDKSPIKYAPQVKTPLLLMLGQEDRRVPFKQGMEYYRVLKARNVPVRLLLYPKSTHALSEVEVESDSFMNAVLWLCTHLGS
# Protocol: (§4) APEH activity was measured spectrophotometrically using the chromogenic substrate acetyl-Ala-pNA (Bachem) as described before. The reaction mixture containing pure APEH or an appropriate amount of cell extract was incubated at 37 °C in 50 mM Tris-HCl, pH 7.5 (Tris Buffer).
# as §2
# [8] = test system: HeLa cervical carcinoma cells; test: MTT cell viability, HeLa; assay type: cell-based, human; conditions: 24h exposure, 50 to 200 μM
# Protocol: as §3
# [9] = test system: human fibroblasts; assay type: cell-based
# Protocol: Human hepatoma cells (HepG2) were seeded (2x10^4cells/cm^2) and maintained for 24h in MEM (Gibco Invitrogen; Milano) medium supplemented with 2 mM L-glutamine, 1% nonessential amino acids and 10% FBS. Colon carcinoma (Caco-2), cervical carcinoma (Hela), glioblastoma (U87), melanoma (A375, A375M) and mammary adenocarcinoma (MCF7, MDA-MB) were seeded (1x10^4cells/cm^2) and grown in DMEM supplemented with 10% FBS, 2 mM L-glutamine. HepG2, Hela, U87, Caco-2, MCF7, MDA-MB, A375 and A375 metastatic melanoma (A375M) cell lines were obtained by ATCC (LCG standards, Milano, Italy). Normal human dermal fibroblast (NDHF) within 8th passage were seeded at a density of 2x10^4 cells/cm^2 and cultured in fibroblast growth medium (FGM-2; Lonza, Milan, Italy) containing 2% FBS, 50 μg/mL gentamycin and amphotericin B, 10μg/mL fibroblast growth factor and insulin. BHK21 cells (kindly donated by Dr. David Y Thomas, McGill University Montreal Canada) were cultured in DMEM/F12, 5% FBS, 1 mM L-glutamine, 200 µg/mL methotrexate, and 100units/mL penicillin-streptomycin. […]
# The colorimetric 3-(4,5-dimethylthiazol-2)-2,5-diphenyltetrazolium bromide (MTT) (Sigma Aldrich, Milan) assay was used to quantify cell viability. […] Absorbance at 590 nm was recorded with a plate reader (Bio Rad mod 680). The relative number of viable cells was expressed as a percentage of the control.
# [10] = test system: caspase 3 in A375 cells; test: Caspase 3 activity in A375 cells; assay type: cell-based, human; conditions: A375, 24h, doses 50, 100 or 200 μM, dose-dependent, maximum
# Protocol: Pro-apoptotic and cytotoxic ability of CLA isomers were assayed by measuring caspase 3 and the activity of lactate dehydrogenase (LDH) in the spent media, respectively [25]. The caspase 3 activity, measured at 37 °C and pH 7.5, was expressed as fold increase compared to the control culture.
# [11] = test system: proteasomal CT-like activity in A375 cells; test: Proteasomal CT-like activity in A375 cytoplasmic extracts after treatment; assay type: cell-based, human; conditions: for proteasomal CT-like activity inhibited to: 24h
# Protocol: as §1
# (§5) Following the treatments, cells were washed three times with ice cold phosphate-buffer saline (PBS) and cytosolic extracts were prepared accordingly to a published procedure. Protein concentrations were determined in supernatants by BCA protein assay reagent kit (Pierce). Western blotting analyses were performed as previously described.
# [12] = test system: APEH activity in A375 cells; test: APEH activity in A375 cytoplasmic extracts after treatment; assay type: cell-based, human
# Protocol: as §4, §5
# [13] = test system: Bcl-2 in A375 cells; test: Bcl-2 protein expression by immunoblotting in A375; assay type: cell-based, human; conditions: A375, 24h, 50-200 μM
# Protocol: as §5
# [14] = test system: γGCL mRNA in A375 cells; test: γGCL mRNA by qRT-PCR in A375; assay type: cell-based, human; conditions: A375, 200 μM, end of time course
# [15] = test system: APEH mRNA in A375 cells; test: APEH mRNA by qRT-PCR in A375; assay type: cell-based, human
# Protocol: (§6) mRNA expression levels of APEH and β-5 proteasome subunit were determined in treated or untreated cells to investigate on the functional relationship existing between APEH and proteasome activities and on their involvement in the anticancer activity of CLA.
# (§7) Total RNA was isolated from the human cell lines (~10^6 cells aliquots) according to the SV Total RNA Isolation System (Promega) protocol, with an on column DNase I step. Total RNA concentrations were determined using a Qubit® Fluorometer (Invitrogen). RNAs were then reverse transcribed using the Transcriptor First Strand cDNA Synthesis Kit (Roche). 100 ng of reverse transcribed complementary DNA, and its dilution series to calculate the efficacy of primers, were amplified by quantitative real-time PCR (qRT-PCR) on an iCycleriQ™ (Bio-Rad) using 300 nM gene-specific primers, Maxima® SYBR Green/Fluorescein qPCR Master Mix (2X) (Fermentas) and the following PCR conditions: 1 cycle at 95 °C for 10min, and 40 cycles of 95 °C for 15s , 60 °C for 30s, and 72 °C for 30s.
# (§8) The expression level of β-actin gene was used as an internal control for normalization (ref gene). Raw cycle threshold values (Ct values) obtained for the target genes were compared to the Ct value obtained for the ref gene. […]
# [16] = test system: β-5 proteasome subunit mRNA in A375 cells; test: β-5 proteasome subunit mRNA by qRT-PCR in A375; assay type: cell-based, human
# Protocol: as §6, §7, §8
# [17] = test system: intracellular GSH in A375 cells; test: Intracellular GSH in A375; assay type: cell-based, human; conditions: A375, 24h, 50, 100 or 200 μM
# Protocol: Intracellular concentration of reduced and oxidized glutathione (GSH and GSSG, respectively) were quantified using the 5,5'-dithiobis(2-nitrobenzoic acid)-GSSG reductase recycling assay. GSSG content was preliminarily evaluated in cytosolic extracts of treated or untreated cells upon the addition of 10 mM 1-methyl-2-vinylpyridinium trifluoromethanesulfonate (a specific GSH scavenger).
# [18] = negative control, data not shown
smiles,measurement,setting,value
"CC(C)C[C@H](NC(=O)[C@H](Cc1ccccc1)NC(=O)c1cnccn1)B(O)O [BTZ, bortezomib, reference compound]","inhibition reached, 20S",[1]; plateau of dose-response curve,about 60%
same,IC50,"[2]; Homo sapiens, A-375, read-out: IC50 (dose accountable for 50% decrease of cell viability), A375, 24h",0.01 ± 2e-05 µM
"CCCCCC/C=C/C=C\CCCCCCCC(=O)O [c9,t11-CLA, cis9,trans11 (c9,t11-CLA)]",IC50,[1],31.2 ± 8.8 µM
same,IC50,[3],6.4 ± 1 µM
same,reduction of cell viability,[2],< 40%
same,reduction of cell viability,[4],< 40%
same,reduction of cell viability,[5],< 40%
"CCCCCCCC(=O)O [octanoic acid, reference compound]",inhibitory effect on 20S CT-like activity,[1]; [18],only negligible effects
same,inhibitory effect on 20Si CT-like activity,[3]; [18],only negligible effects
same,effect on cell viability,[6],no significant results
"CCCCCC/C=C/C=C/CCCCCCCC(=O)O [t9,t11-CLA]",reduction of cell viability,[2],about 50%
"CCCCC/C=C\C=C\CCCCCCCCC(=O)O [t10,c12-CLA, trans10,cis12 (t10,c12-CLA)]",IC50,[1],14.8 ± 2 µM
same,IC50,[3],1.1 ± 0.2 µM
same,IC50,"[7]; 37 °C, pH 7.5",110 ± 11.7 µM
same,maximum inhibition of APEH,[7]; dose-dependent,about 41%
same,reduction of cell viability,[2],63%
same,reduction of cell viability,[4],51%
same,reduction of cell viability,[8],40%
same,toxic effects on fibroblast proliferation,[9],lack of toxic effects
same,caspase 3 activation compared to the control culture,[10],eightfold increase
same,"proteasomal CT-like activity plateau, % of starting value","[11]; A375, 50 μM, plateau after 8h",70%
same,proteasomal CT-like activity inhibited to,"[11]; A375, 100 μM",50%
same,proteasomal CT-like activity inhibited to,"[11]; A375, 200 μM",25%
same,"APEH activity plateau, % of starting value","[12]; A375, 50 μM, plateau after 8h",80%
same,"APEH activity plateau, % of starting level","[12]; A375, 200 μM, time course",70%
same,maximum reduction of Bcl-2 expression,[13],80%
same,down-regulation of γGCL mRNA levels,[14],1.5 fold
same,APEH mRNA stable final value vs initial expression level,"[15]; A375, 50 μM, time course",approximately one-fold lower
same,APEH mRNA level,"[15]; A375, 200 μM, 24h",strongly down-regulated
same,β-5 mRNA stable final value vs initial expression level,"[16]; A375, 50 μM, time course",approximately one-fold lower
same,proteasome (β-5) mRNA level,"[16]; A375, 200 μM, 24h",strongly down-regulated
same,intracellular GSH,[17],significant decline
